From patent publication US5364764A, “Fluorescent chloramphenicol derivatives for determination of chloramphenicol acetyltransferase activity” (Molecular Probes, Inc., priority 1992, dated 1994)

How the values were obtained:
[1] = target: T1, purified CAT (chloramphenicol acetyltransferase) (Escherichia coli, UniProt P62577); assay: Procedure for comparing activity of fluorescent substrates (TLC, conversion to acetylated products); assay type: biochemical; conditions: 0.8 U purified CAT, acetyl CoA, 1M TRIS pH 7.4, 37° C., 1 hour
T1 construct: the pSV2cat reporter type
Experimental: To a solution of 0.5 mg acetyl CoA in 112 μL of 1M TRIS pH 7.4 was added 7 μL of a solution of 440 μM fluorescent CAT substrate in ethanol. Then 0.8 U of purified CAT in 1 μL of 1 M TRIS (pH 7.4) was added and the solution was incubated at 37° C. for 1 hour. The reaction mixture was extracted with 0.7 mL of ethyl acetate, and the solvent was removed under vacuum. The residue was dissolved in 14 μL of ethyl acetate, spotted on the pre-absorbent area of Whatman LK6 silica-gel TLC plates and developed with 10% methanol in chloroform. A control, run as above but with no enzyme present, was spotted adjacent to each reaction mixture.
Qualitative estimates of substrate activity of each fluorescent derivative were made by examination of the plates for conversion to acetylated products.

[2] = test system: chloramphenicol acetyltransferase (CAT); conditions: reported by Shaw et al., J. Biol. Chem. 242(4):687 (1967); read-out: Km (Michaelis-Menten constant) for chloramphenicol; cited from earlier work
[3] = target: T1, purified CAT (chloramphenicol acetyltransferase); assay: Relative velocity vs chloramphenicol; assay type: biochemical; conditions: first ten minutes, substrate 33.2 μM, TRIS pH 7.4, 0.4 mg Acetyl CoA, 0.8U purified enzyme
Experimental: The velocity during the first ten minutes at a substrate concentration of 33.2 μM was determined using Compound 6 and ^14 C chloramphenicol. The reactions were run in 100 μL final volume TRIS pH 7.4 with 0.4 mg of Acetyl CoA and 0.8U of purified enzyme. The concentrations of acetylated products after ten minutes were determined by extraction from the TLC plates and measuring spectrophotometrically, in the case of Compound 6, and by counting radioactivity in the case of ^14 C chloramphenicol. The velocity during the first ten minutes was assumed to be very close to Vmax. The velocity of Compound 6 was 0.66 of the velocity of ^14 C chloramphenicol.

[4] = Solubility in aqueous and nonaqueous solvents; assay type: physicochemical; conditions: compared with the corresponding fluorescein derivative 36

T1 sequence (P62577 whole entry, looked up): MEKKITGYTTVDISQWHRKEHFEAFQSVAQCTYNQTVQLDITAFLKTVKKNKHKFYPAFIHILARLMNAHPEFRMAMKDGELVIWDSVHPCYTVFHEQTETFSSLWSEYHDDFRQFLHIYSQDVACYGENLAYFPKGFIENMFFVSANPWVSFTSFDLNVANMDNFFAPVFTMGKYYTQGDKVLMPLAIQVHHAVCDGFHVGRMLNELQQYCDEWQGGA

CN(C)c1ccc2c(CC(=O)NCCCC(=O)N[C@H](CO)[C@H](O)c3ccc([N+](=O)[O-])cc3)cc(=O)oc2c1 [Compound 21]
Qualitative estimate of substrate activity (reaction velocity, conversion to acetylated products) [1]: highest reaction velocities

Nc1ccc([C@@H](O)[C@@H](CO)NC(=O)CCCCCNc2ccc([N+](=O)[O-])c3nonc23)cc1 [Compound 28]
Qualitative estimate of substrate activity (reaction velocity, conversion to acetylated products) [1]: highest reaction velocities

O=C(N[C@H](CO)[C@H](O)c1ccc([N+](=O)[O-])cc1)C(Cl)Cl [chloramphenicol]
Km [2]: ~15 µM

CC(=O)Nc1ccc([C@@H](O)[C@@H](CO)NC(=O)CCCNC(=O)Cc2cc(=O)oc3cc(N(C)C)ccc23)cc1 [Compound 23]
Qualitative estimate of substrate activity (reaction velocity, conversion to acetylated products) [1]: highest reaction velocities

CC(=O)Nc1ccc([C@@H](O)[C@@H](CO)NC(=O)CCCNC(=O)CC2=CC(C)=[N+]3C2=Cc2c(C)cc(C)n2[B-]3(F)F)cc1 [Compound 6]
Qualitative estimate of substrate activity (reaction velocity, conversion to acetylated products) [1]: highest reaction velocities
Velocity relative to the velocity of 14C chloramphenicol [3]: 0.66
Solubility in ethyl acetate [4]: much more soluble in ethyl acetate
